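Interpolation was linear, between the two tested concentrations surrounding the appropriate level; five concentrations were tested over 48 hours in 96-well plates. Here, GI50 denotes the concentration required for 50% inhibition of growth.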 Calls of active or inactive are those of the source. Cut-off read from the data, not from the text of the source: active = GI50 up to about 1.1 µM and inactive = higher.
Tests used:
Assay in all cases: DTP human tumour cell line panel, 48 h
[1] = test system: SK-MEL-2
[2] = test system: MOLT-4
[3] = test system: NCI-H226
[4] = test system: RXF 393
[5] = test system: MCF7
[6] = test system: DU-145
[7] = test system: HCC 2998
[8] = test system: A549
[9] = test system: SNB-19
[10] = test system: ACHN
[11] = test system: HL-60
[12] = test system: OVCAR-4
[13] = test system: OVCAR-8
[14] = test system: OVCAR-5
[15] = test system: M14
[16] = test system: SK-MEL-5
[17] = test system: HT-29
[18] = test system: SR
[19] = test system: LOX IMVI
[20] = test system: SF-539

SMILES | GI50 [1] | GI50 [2] | GI50 [3] | GI50 [4] | GI50 [5] | GI50 [6] | GI50 [7] | GI50 [8] | GI50 [9] | GI50 [10] | GI50 [11] | GI50 [12] | GI50 [13] | GI50 [14] | GI50 [15] | GI50 [16] | GI50 [17] | GI50 [18] | GI50 [19] | GI50 [20]
CC(=O)N(CCc1ccccc1)C(C)(C#N)c1ccccc1 (configuration not stated) | > 100 µM (inactive) | > 100 µM (inactive) | > 100 µM (inactive) | > 100 µM (inactive) | > 100 µM (inactive) | > 100 µM (inactive) | > 100 µM (inactive) | > 100 µM (inactive) | > 100 µM (inactive) | > 100 µM (inactive) | > 100 µM (inactive) | > 100 µM (inactive) | > 100 µM (inactive) | > 100 µM (inactive) | > 100 µM (inactive) | > 100 µM (inactive) | > 100 µM (inactive) | > 100 µM (inactive) | > 100 µM (inactive) | > 100 µM (inactive)
Cc1sccc1C(=S)Nc1ccc(Cl)c(/C=N/OC(C)(C)C)c1 | 15.5 µM (inactive) | 7.6 µM (inactive) | 13.9 µM (inactive) | 17.2 µM (inactive) | 11.8 µM (inactive) | 14.6 µM (inactive) | 16.4 µM (inactive) | 20.2 µM (inactive) |  |  | 16.9 µM (inactive) | 15.2 µM (inactive) | 17.1 µM (inactive) | 19.3 µM (inactive) | 17.9 µM (inactive) | 13.2 µM (inactive) | 14.3 µM (inactive) | 17.6 µM (inactive) | 26.6 µM (inactive) | 31.5 µM (inactive)
CN(Cc1nc2c(N)nc(N)nc2nc1N)c1ccc(C(=O)NC(CCC(=O)O)C(=O)O)cc1 (configuration not stated) | > 100 µM (inactive) | < 0.0163 µM (active) | > 100 µM (inactive) | > 100 µM (inactive) | 0.0596 µM (active) | 0.254 µM (active) | 3.65 µM (inactive) |  | 64.6 µM (inactive) | 0.041 µM (active) | < 0.01 µM (active) | > 100 µM (inactive) | 0.0413 µM (active) | 17.7 µM (inactive) | 0.0615 µM (active) | 1.55 µM (inactive) | < 0.01 µM (active) | < 0.01 µM (active) | < 0.01 µM (active) | 0.0378 µM (active)
C[C@H](CCC(=O)NCC(=O)O)[C@H]1CC[C@H]2[C@@H]3[C@H](O)C[C@@H]4C[C@H](O)CC[C@]4(C)[C@H]3CC[C@]12C | > 100 µM (inactive) | > 100 µM (inactive) | > 100 µM (inactive) | > 100 µM (inactive) | > 100 µM (inactive) | > 100 µM (inactive) | > 100 µM (inactive) | > 100 µM (inactive) | > 100 µM (inactive) | > 100 µM (inactive) | > 100 µM (inactive) | > 100 µM (inactive) | > 100 µM (inactive) | > 100 µM (inactive) | > 100 µM (inactive) | > 100 µM (inactive) | > 100 µM (inactive) | > 100 µM (inactive) | > 100 µM (inactive) | > 100 µM (inactive)

— ChEMBL document CHEMBL1201862, “PubChem BioAssay data set” (2004)
